Laboratory results as given in patent US20240341301A1 (The Regents of the University of Michigan, priority 2023, published 2024).

Assays:
pig hearts = experiment: Porcine ex-vivo heart perfusion after cold preservation
Experimental: Heart procurement for both human and pigs were performed as follows. A sternotomy is performed under general anesthesia. The pericardium is then opened to create a pericardial cradle for the heart. Heparin (300U/kg) administered through the right atrium or in a peripheral vein. After waiting 3 minute for adequate anticoagulation from heparin, a 9 Fr antegrade plegia infusion catheter is placed in the ascending aorta. Approximately 1 liter of autologous donor arterial blood is then collected into a collection bottle containing heparin. […] Subsequently, the ascending aorta is cross-clamped distal to the cardioplegia catheter and 1 liter of cold (4° C.) HTK solution is infused into the coronaries at a perfusion pressure of ˜80 mmHg to induce mechanical arrest. After excising the heart completely, it is transported to the back-table for infusion of 2 liters of HTK±VPA solution. After completion, the heart is stored in a solution identical to the perfusate at 4° C. on ice.
Pig hearts underwent ex-vivo perfusion after preservation for 4 or 10 hours. Approval for human heart procurement was obtained from the University of Michigan Institutional Review Board (HUM00131275). Human donor hearts from deceased brain death donors were procured as per standard clinical protocols from the Gift of Life Michigan (GOLM) organ procurement facility. Myocardial biopsies (˜5 mm^3) of LV were biopsied immediately after cardioplegic arrest (0 h) and after 8 hours (8 h) of cold storage in a cooler containing ice. […] Causes of death were stroke (n=4), trauma (n=2), drug overdose (n=1), and cardiac arrest (n=1). Heart tissue were either fixed in formalin or snap frozen in liquid N2 for later analysis.
For ex-vivo pig heart perfusion (FIG. 15), the ascending aorta is connected to the arterial perfusion cannula and the left atrium is closed by suturing shut the pulmonary veins. A pressure monitoring catheter and left atrial infusion catheter were then placed into the left atrial cavity and secured. The Miller conductance catheter was introduced into the left ventricular cavity for measurement of ventricular performance parameters. The Radnoti constant perfusion pressure apparatus (ADInstruments Inc., Colorado Springs, CO) was utilized for ex-vivo large animal heart perfusion. Approximately 1 liter of previously collected autologous blood was added to ˜3.5 liters of Krebs buffer and this was initially infused at 24° C. with gradual warming to 37° C. After air was removed from the perfusion system, the ascending aorta and coronaries were retrograde perfused through the arterial cannula at physiological pressure ˜80 mmHg, leading to cardiac reanimation. The perfusion pressure was kept constant at ˜80 mmHg so LV contraction would need to overcome this afterload for cardiac output. Shockable arrhythmias such as ventricular tachycardia, ventricular fibrillation, supraventricular tachycardia were electrically cardioverted to sinus rhythm by delivery of 10 or 20 joules of energy. Cardiac performance was assessed in “resting” and “working” modes (60, 61). The left atrial pressure in resting mode was typically 0-1 mmHg. To assess cardiac hemodynamics in “working mode”, perfusate was infused into the left atrium at 4-10 mmHg at the 4-hour time point for LV loading and cardiac output assessment. Because cardiac performance was highly impaired as expected at the 10-hour time point, the left atrium was loaded to a pressure of up to 15 mmHg to assess cardiac output. At 1 hour intervals, both arterial perfusate and coronary sinus blood were collected for monitoring and analysis. Oxygen pressure was kept at about pO2 150-200 mmHg while pCO2 was kept at about 35-40 mmHg. Arterial pH was maintained at 7.35-7.40 by buffering with 5% CO2 during gas exchange. The heart was perfused ex vivo for 3 hours and then arrested with 4° C. HTK solution for specimen collection in formalin or snap frozen with liquid N2. The heart was weighed at the time of procurement and at the end of perfusion. […]

[1] = cited from earlier work
[2] = ex vivo perfused hearts compared to HTK alone

Compound: CCCC(CCC)C(=O)O [VPA, 2-Propyl-pentanoic acid]
- TnI in arterial perfusate (pig hearts): reduced
- cleaved caspase 3 expression (pig hearts): decreased
- heart weight (pig hearts): no difference
- oxygen consumption (pig hearts): higher
- total Nrf2 protein in cardiac tissue (pig hearts): increased
- NRF2 nuclear translocation (pig hearts; 4 and 10 hours of preservation): induced
- donor heart contractility in working mode (pig hearts; 4 h and 10 h preservation): improved
- donor heart relaxation in working mode (pig hearts; 4 h and 10 h preservation): improved
- oxidative DNA damage via 8-OHdG staining (pig hearts; 10 h preservation): greatly reduced
- improvement of cardiac output (CO) compared with HTK alone (pig hearts; after 4 h preservation): about 25%
- aortic pulse pressure magnitude (systolic minus diastolic pressure) (pig hearts; after 10 h of preservation): greater
- improvement of cardiac output (CO) compared with HTK alone (pig hearts; after 10 h of preservation): 100%
- systolic pressure in the left ventricular cavity (pig hearts; after 10 h of preservation): higher
- perfusate concentration of IL-1β (pig hearts; after 10 hours of preservation): reduced
- perfusate concentration of IL-2 (pig hearts; after 10 hours of preservation): reduced
- perfusate concentration of IL-6 (pig hearts; after 10 hours of preservation): reduced
- perfusate concentration of TNF-α (pig hearts; after 10 hours of preservation): reduced
- expression of pro-survival protein BCL2 (pig hearts; after 10 h preservation): increased
- expression of IRG1 transcript (pig hearts; [2]): increased
- mRNA abundance of IL1B (pig hearts; [2]): decreased
- mRNA abundance of IL6 (pig hearts; [2]): decreased
- mRNA abundance of TNFA (pig hearts; [2]): decreased
- oxygen consumption compared to HTK alone (pig hearts; pig hearts preserved for 10 h): greater
- water solubility [1]: water soluble
